Data from ChEMBL document CHEMBL5346903, “Discovery of novel and bioavailable histone deacetylases and cyclin-dependent kinases dual inhibitor to impair the stemness of leukemia cells” (Eur J Med Chem, 2023).

Key:
[1] = target: Cyclin-dependent kinase 4/cyclin D1 (Homo sapiens) (UniProt P11802+P24385); assay: Inhibition of CDK4/cyclinD1 (unknown origin) at 100 nM preincubated for 20 mins followed by [gamma-33P]ATP addition measured after 120 mins in presence of ATP by Hot-SpotSM kinase assay relative to control; type: protein-complex assay; settings: time 140.0 min
[2] = target: CDK9/cyclin T1 (Homo sapiens) (UniProt O60563+P50750); assay: Inhibition of CDK9/cyclinT1 (unknown origin) at 100 nM preincubated for 20 mins followed by [gamma-33P]ATP addition measured after 120 mins in presence of ATP by Hot-SpotSM kinase assay relative to control; type: protein-complex assay; settings: time 140.0 min
HL-60 [3] = assay: Upregulation of Ac-Histone 3 level in human HL-60 cells incubated for 6 hrs by Western blot analysis; type: functional, cell-based; settings: dose <= 1000.0 nM
HL-60 [4] = assay: Downregulation of Pol-II S2 level in human HL-60 cells incubated for 6 hrs by Western blot analysis; type: functional, cell-based; settings: dose <= 1000.0 nM
HL-60 [5] = assay: Induction of apoptosis in human HL-60 cells assessed as early apoptotic cells at 0.5 uM incubated for 48 hrs by annexin V-FITC/PI satining based flow cytometry (reference value: 1.24 %); type: functional
HL-60 [6] = assay: Induction of apoptosis in human HL-60 cells assessed as late apoptotic cells at 1 uM incubated for 48 hrs by annexin V-FITC/PI satining based flow cytometry (reference value: 1.33 %); type: functional
HL-60 [7] = assay: Induction of apoptosis in human HL-60 cells assessed as necrotic cells at 0.2 uM incubated for 48 hrs by annexin V-FITC/PI satining based flow cytometry (reference value: 0.00 %); type: functional
HL-60 [8] = assay: Induction of apoptosis in human HL-60 cells assessed as necrotic cells at 0.5 uM incubated for 48 hrs by annexin V-FITC/PI satining based flow cytometry (reference value: 0.00 %); type: functional
HL-60 [9] = assay: Induction of apoptosis in human HL-60 cells assessed as necrotic cells at 1 uM incubated for 48 hrs by annexin V-FITC/PI satining based flow cytometry (reference value: 0.00 %); type: functional
U-937 [10] = assay: Induction of apoptosis in human U-937 cells assessed as viable cells at 0.2 uM incubated for 48 hrs by annexin V-FITC/PI satining based flow cytometry (reference value: 90.0 %); type: functional; settings: read-out: Activity
U-937 [11] = assay: Induction of apoptosis in human U-937 cells assessed as necrotic cells at 1 uM incubated for 48 hrs by annexin V-FITC/PI satining based flow cytometry (reference value: 1.96 %); type: functional
HL-60 [12] = assay: Induction of differentiation in human HL-60 cells assessed as increase in CD11b positive cells at 0.5 uM incubated for 24 hrs by FITC staining based flow cytometry (reference value: 1.45 %); type: functional
HL-60 [13] = assay: Induction of differentiation in human HL-60 cells assessed as increase in CD11b positive cells at 1 uM incubated for 24 hrs by FITC staining based flow cytometry (reference value: 1.45 %); type: functional
U-937 [14] = assay: Induction of differentiation in human U-937 cells assessed as increase in CD11b positive cells at 2 uM incubated for 48 hrs by FITC staining based flow cytometry (reference value: 2.72 %); type: functional
[15] = Half life in Sprague-Dawley rat at 5 mg/kg, iv measured upto 6 hrs by LC/MS-MS analysis; type: ADME, organism-based; settings: in vivo
[16] = MRT in Sprague-Dawley rat at 5 mg/kg, iv measured upto 6 hrs by LC/MS-MS analysis; type: ADME, organism-based; settings: in vivo
[17] = Cmax in Sprague-Dawley rat at 25 mg/kg, po measured upto 8 hrs by LC/MS-MS analysis; type: ADME, organism-based; parameters: time < 8 hrs, dose 25 mg/kg, route po; settings: in vivo
[18] = Half life in Sprague-Dawley rat at 25 mg/kg, po measured upto 8 hrs by LC/MS-MS analysis; type: ADME, organism-based; settings: in vivo
[19] = Clearance in Sprague-Dawley rat at 25 mg/kg, po measured upto 8 hrs by LC/MS-MS analysis; type: ADME, organism-based; settings: in vivo
HL-60 [20] = assay: Induction of apoptosis in human HL-60 cells assessed as early apoptotic cells at 0.6 uM incubated for 48 hrs by annexin V-FITC/PI satining based flow cytometry (reference value: 2.4 %); type: functional
HL-60 [21] = assay: Induction of apoptosis in human HL-60 cells assessed as early apoptotic cells at 2.5 uM incubated for 48 hrs by annexin V-FITC/PI satining based flow cytometry (reference value: 2.4 %); type: functional
HL-60 [22] = assay: Induction of apoptosis in human HL-60 cells assessed as late apoptotic cells at 0.6 uM incubated for 48 hrs by annexin V-FITC/PI satining based flow cytometry (reference value: 2.83 %); type: functional
HL-60 [23] = assay: Induction of apoptosis in human HL-60 cells assessed as late apoptotic cells at 1.2 uM incubated for 48 hrs by annexin V-FITC/PI satining based flow cytometry (reference value: 2.83 %); type: functional
HL-60 [24] = assay: Induction of apoptosis in human HL-60 cells assessed as late apoptotic cells at 5 uM incubated for 48 hrs by annexin V-FITC/PI satining based flow cytometry (reference value: 2.83 %); type: functional
U-937 [25] = assay: Induction of apoptosis in human U-937 cells assessed as viable cells at 1.2 uM incubated for 48 hrs by annexin V-FITC/PI satining based flow cytometry (reference value: 93.7 %); type: functional; settings: read-out: Activity
U-937 [26] = assay: Induction of apoptosis in human U-937 cells assessed as late apoptotic cells at 1.2 uM incubated for 48 hrs by annexin V-FITC/PI satining based flow cytometry (reference value: 4.23 %); type: functional
U-937 [27] = assay: Induction of apoptosis in human U-937 cells assessed as necrotic cells at 0.6 uM incubated for 48 hrs by annexin V-FITC/PI satining based flow cytometry (reference value: 0.102 %); type: functional
HL-60 [28] = assay: Induction of differentiation in human HL-60 cells assessed as increase in CD11b positive cells at 0.6 uM incubated for 24 hrs by FITC staining based flow cytometry (reference value: 1.12 %); type: functional
U-937 [29] = assay: Induction of differentiation in human U-937 cells assessed as increase in CD11b positive cells at 0.6 uM incubated for 48 hrs by FITC staining based flow cytometry (reference value: […] %); type: functional
U-937 [30] = assay: Induction of differentiation in human U-937 cells assessed as increase in CD11b positive cells at 1.2 uM incubated for 48 hrs by FITC staining based flow cytometry (reference value: […] %); type: functional
U-937 [31] = assay: Induction of differentiation in human U-937 cells assessed as increase in CD11b positive cells at 2.5 uM incubated for 48 hrs by FITC staining based flow cytometry (reference value: […] %); type: functional
U-937 [32] = assay: Induction of differentiation in human U-937 cells assessed as increase in CD11b positive cells at 5 uM incubated for 48 hrs by FITC staining based flow cytometry (reference value: […] %); type: functional
[33] = Cytotoxicity against human Kasumi 1 cells assessed as CD34positive CD38negative leukemic stem cell-like cells sub-population at 1 uM incubated for 24 hrs by APC/FITC satining based flow cytometry (reference value: 95.8 %); type: functional
[34] = Cytotoxicity against human Kasumi 1 cells assessed as CD34positive CD38negative leukemic stem cell-like cells sub-population at 2 uM incubated for 24 hrs by APC/FITC satining based flow cytometry (reference value: 95.8 %); type: functional

Nc1ccccc1NC(=O)c1ccc(NC(=O)c2n[nH]cc2NC(=O)c2c(Cl)cccc2Cl)cc1
inhibition [1]: 53.7% | inhibition [2]: 98.3% | Activity (HL-60 [3]): Dose-Dependent Effect | Activity (HL-60 [4]): Dose-Dependent Effect | Activity (HL-60 [5]): 2.42% | Activity (HL-60 [6]): 39% | Activity (HL-60 [7]): 0.02% | Activity (HL-60 [8]): 0.01% | Activity (HL-60 [9]): 0.445% | viability at 0.2 µM (U-937 [10]): 87.4% | Activity (U-937 [11]): 15.1% | Activity (HL-60 [12]): 6.09% | Activity (HL-60 [13]): 37.6% | Activity (U-937 [14]): 18.5% | t1/2 [15]: 6.6 min | MRT [16]: 23.4 min | Cmax [17]: 1430 ng/mL | t1/2 [18]: 82.2 min | CL/F [19]: 28.8 mL/min/kg

Nc1cc(F)ccc1NC(=O)c1ccc(CNC(=O)/C=C/c2cccnc2)cc1 [TUCIDINOSTAT]
Activity (HL-60 [20]): 2.52% | Activity (HL-60 [21]): 5.95% | Activity (HL-60 [22]): 2.27% | Activity (HL-60 [23]): 11.5% | Activity (HL-60 [24]): 73.4% | viability at 1.2 µM (U-937 [25]): 90.3% | Activity (U-937 [26]): 6.77% | Activity (U-937 [27]): 0.072% | Activity (HL-60 [28]): 24.4% | Activity (U-937 [29]): 4.06% | Activity (U-937 [30]): 5% | Activity (U-937 [31]): 5.59% | Activity (U-937 [32]): 5.7% | Activity [33]: 88.5% | Activity [34]: 77.8%
